In patent US12319655B2, “RAF kinase inhibitors and methods of use thereof” (Deciphera Pharmaceuticals, LLC, priority 2021, dated 2025):
Like-named read-outs stand apart in the source and are kept apart here.

Columns and labels:
[1] = target: B-Raf kinase (SEQ. ID NO: 2) (Homo sapiens (Human), UniProt P15056); assay: Biochemical Assay for B-Raf (1); conditions: Table J
Procedure: Biochemical Assay for B-Raf (1)
(§1) Activity of B-Raf kinase (SEQ. ID NO: 2) was determined spectroscopically using a coupled pyruvate kinase/lactate dehydrogenase assay that continuously monitors the ATP hydrolysis-dependent oxidation of NADH (e.g., Schindler et al., Science, 2000, 289, 1938-1942). Assays were conducted in 384-well plates (100 μL final volume) using 0.13 nM B-Raf (Sigma), 1.5 units pyruvate kinase, 2.1 units lactate dehydrogenase, 1 mM phosphoenol pyruvate, 0.28 mM NADH, 30.1 nM MEK (SignalChem), and 1 mM ATP in assay buffer (100 mM Tris, Ph 7.5, 15 mM MgCl2, 0.5 mM DTT, 0.1% octyl-glucoside, 0.002% (w/v) BSA, and 0.002% Triton X-100). Inhibition of B-Raf was measured by adding serial diluted test compound (final assay concentration of 1% DMSO). A decrease in absorption at 340 nm was monitored continuously for 6 h at 30° C. on a multi-mode microplate reader (BioTek). The reaction rate was calculated using the 4 to 5 h time frame. The reaction rate at each concentration of compound was converted to percent inhibition using controls (i.e., reaction with no test compound and reaction with a known inhibitor) and IC50 values were calculated by fitting a four-parameter sigmoidal curve to the data using Prism (GraphPad software).

[2] = target: C-Raf kinase (SEQ. ID NO: 3) (Homo sapiens (Human), UniProt P04049, Y340D/Y341D); assay: Biochemical Assay for C-Raf (1); conditions: Table J
Procedure: Biochemical Assay for C-Raf (1)
as §1, with “of C-Raf” for “of B-Raf”, “NO: 3)” for “NO: 2)”, “using 0.43” for “using 0.13”, “nM C-Raf” for “nM B-Raf”

[3] = target: B-Raf (V600E) (SEQ. ID NO: 4) kinase (Homo sapiens (Human), UniProt P15056, V600E); assay: Biochemical Assay for B-Raf (V600E) (1); conditions: Table J, BRAF V600E
Procedure: Biochemical Assay for B-Raf (V600E) (1)
Activity of B-Raf (V600E) (SEQ. ID NO: 4) kinase was determined spectroscopically using a coupled pyruvate kinase/lactate dehydrogenase assay that continuously monitors the ATP hydrolysis-dependent oxidation of NADH (e.g., Schindler et al., Science, 2000, 289, 1938-1942). Assays were conducted in 384-well plates (100 μL final volume) using 0.03 nM B-Raf (SignalChem), 1.5 units pyruvate kinase, 2.1 units lactate dehydrogenase, 1 mM phosphoenol pyruvate, 0.28 mM NADH, 30.1 nM MEK (SignalChem), and 1 mM ATP in assay buffer (100 mM Tris, Ph 7.5, 15 mM MgCl2, 0.5 mM DTT, 0.1% octyl-glucoside, 0.002% (w/v) BSA, and 0.002% Triton X-100). Inhibition of B-Raf (V600E) was measured by adding serial diluted test compound (final assay concentration of 1% DMSO). A decrease in absorption at 340 nm was monitored continuously for 6 h at 30° C. on a multi-mode microplate reader (BioTek). The reaction rate was calculated using the 3 to 4 h time frame. The reaction rate at each concentration of compound was converted to percent inhibition using controls (i.e., reaction with no test compound and reaction with a known inhibitor) and IC50 values were calculated by fitting a four-parameter sigmoidal curve to the data using Prism (GraphPad software).

[4] = target: A-Raf kinase (SEQ. ID No: 1) (Homo sapiens (Human), UniProt P10398, Y301D/Y302D); assay: Biochemical Assay for A-Raf (1); conditions: Table J
Procedure: Biochemical Assay for A-Raf (1)
as §1, with “A-Raf” for “B-Raf”, “No: 1)” for “NO: 2)”, “5.55” for “0.13”, “pH” for “Ph”

A375 cells = assay: A375 Cell Proliferation Assay (1); format: cell-based; conditions: Homo sapiens, A-375
Procedure: A375 Cell Proliferation Assay (1)
A375 cells (catalog (#CRL-1619) are obtained from the American Type Culture Collect (ATTC, Manassas, VA). Briefly, cells were grown in DMEM High Glucose supplemented with 10% characterized fetal bovine serum (Invitrogen, Carlsbad, CA) and 1% Penicillin/Streptomycin/L-Glutamine at 37° C., 5% CO2, and 95% humidity. Cells are expanded until reaching 70-95% confluency at which point they are sub-cultured or harvested for assay use. A serial dilution of test compound is dispensed into a 96-well black clear bottom plate in triplicate. Two thousand five hundred cells are added per well in 200 μL complete growth medium in the 96-well plate. Plates are incubated for 67-72 h at 37° C., 5% CO2, and 95% humidity. At the end of the incubation, 40 μL of a 440 μM solution of resazurin (Sigma, St. Louis, MO) in PBS is added to each well of the plate and plates are incubated for an additional 5-6 h at 37° C., 5% CO2, and 95% humidity. Plates are read on a Synergy2 or equivalent reader (Biotek, Winooski VT) using an excitation of 540 nm and an emission of 600 nm. Data is analyzed using Prism software (GraphPad, San Diego, CA) to calculate IC50 values.

[5] = assay version (1), read-out: BRAF (1) IC50
[6] = assay version (1), read-out: CRAF (1) IC50
[7] = assay version (1), read-out: BRAF VE (1) IC50
[8] = assay version (1), read-out: ARAF (1) IC50
[9] = biochemical assay (1), read-out: BRAF (1)
[10] = biochemical assay (1), read-out: CRAF (1)
[11] = biochemical assay (1), read-out: BRAF VE (1)
[12] = biochemical assay (1), read-out: ARAF (1)

Chain of B-Raf kinase (SEQ. ID NO: 2) (P15056 416-766): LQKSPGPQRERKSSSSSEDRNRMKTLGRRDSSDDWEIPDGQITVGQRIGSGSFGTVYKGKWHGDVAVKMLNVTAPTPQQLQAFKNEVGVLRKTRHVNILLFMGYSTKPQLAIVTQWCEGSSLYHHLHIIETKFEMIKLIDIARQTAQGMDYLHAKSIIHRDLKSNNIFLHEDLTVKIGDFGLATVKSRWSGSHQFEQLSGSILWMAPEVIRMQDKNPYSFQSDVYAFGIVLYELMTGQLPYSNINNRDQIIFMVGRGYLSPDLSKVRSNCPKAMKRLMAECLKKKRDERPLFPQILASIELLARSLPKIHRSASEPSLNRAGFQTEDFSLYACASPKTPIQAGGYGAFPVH
Chain of B-Raf (V600E) (SEQ. ID NO: 4) kinase (P15056 416-766 V600E): as the sequence (P15056 416-766) above, with V185E counted along it
Chain of C-Raf kinase (SEQ. ID NO: 3) (P04049 307-648 Y340D/Y341D): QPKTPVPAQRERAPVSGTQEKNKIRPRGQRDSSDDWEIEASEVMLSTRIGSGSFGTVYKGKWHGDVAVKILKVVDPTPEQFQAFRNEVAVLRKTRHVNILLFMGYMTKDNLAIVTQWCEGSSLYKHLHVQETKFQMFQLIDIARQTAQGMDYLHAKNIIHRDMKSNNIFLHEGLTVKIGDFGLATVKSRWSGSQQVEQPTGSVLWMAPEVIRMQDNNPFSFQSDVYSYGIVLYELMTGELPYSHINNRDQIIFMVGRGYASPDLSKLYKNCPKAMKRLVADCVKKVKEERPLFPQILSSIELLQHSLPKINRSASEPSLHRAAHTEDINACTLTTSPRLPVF
Chain of A-Raf kinase (SEQ. ID No: 1) (P10398 other isoform, or with tags, fused parts or gaps Y301D (already in the parent)/Y302D (already in the parent)): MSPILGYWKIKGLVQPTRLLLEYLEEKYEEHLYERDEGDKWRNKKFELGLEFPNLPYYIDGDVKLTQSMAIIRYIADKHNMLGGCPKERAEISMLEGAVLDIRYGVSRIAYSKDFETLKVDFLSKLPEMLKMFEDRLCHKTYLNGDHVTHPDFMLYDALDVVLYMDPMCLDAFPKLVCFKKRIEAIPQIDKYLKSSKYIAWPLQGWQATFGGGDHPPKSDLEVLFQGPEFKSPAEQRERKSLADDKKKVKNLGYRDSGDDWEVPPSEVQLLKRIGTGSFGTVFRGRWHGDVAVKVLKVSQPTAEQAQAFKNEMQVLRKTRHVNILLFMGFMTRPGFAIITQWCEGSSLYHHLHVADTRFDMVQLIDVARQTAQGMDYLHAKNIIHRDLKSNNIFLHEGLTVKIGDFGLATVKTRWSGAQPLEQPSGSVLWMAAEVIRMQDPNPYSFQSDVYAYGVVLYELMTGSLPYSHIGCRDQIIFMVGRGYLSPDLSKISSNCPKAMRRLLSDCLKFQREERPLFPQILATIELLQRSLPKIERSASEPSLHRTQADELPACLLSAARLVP

| SMILES | IC50 [1, 5] [nM] | IC50 [2, 6] [nM] | IC50 [3, 7] [nM] | IC50 [4, 8] [µM] | IC50 (A375 cells) [nM] | IC50 [1, 9] [nM] | IC50 [2, 10] [nM] | IC50 [3, 11] [nM] | IC50 [4, 12] [µM] |
| --- | --- | --- | --- | --- | --- | --- | --- | --- | --- |
| CCOc1cc(-c2cc(NC(=O)c3ccnc(C(F)(F)F)c3)c(F)cc2C)cc(-c2ccnc(NC(C)=O)c2)n1 [Example 9] | 100 to 500 | ≤ 100 | ≤ 100 | 1 to 10 | 100 to 500 |  |  |  |  |
| Cc1ccc(NC(=O)c2ccnc(C(F)(F)F)c2)cc1-c1cccc(-c2ccnc(N)c2)c1 [Example 38] | ≤ 100 | ≤ 100 | ≤ 100 | 1 to 10 | 1000 to 10000 |  |  |  |  |
| Cc1ncc(NC(=O)C2CCOC2)cc1-c1nccc(-c2ccnc(NC(=O)C3CC3)c2)n1 (stereo not drawn) [Example 335] | 1000 to 10000 | 1000 to 10000 | 1000 to 10000 | 1 to 10 |  |  |  |  |  |
| Cc1ncc(NC(=O)C2CCOCC2)cc1-c1ccnc(-c2ccnc(NC(=O)C3CC3)c2)n1 [Example 336] | 1000 to 10000 | 1000 to 10000 | 500 to 1000 | 1 to 10 |  |  |  |  |  |
| Cc1ncc(NC(=O)C2CCOC2)cc1-c1ccnc(-c2ccnc(NC(=O)C3CC3)c2)n1 (stereo not drawn) [Example 337] | 1000 to 10000 | 1000 to 10000 | 1000 to 10000 | 1 to 10 |  |  |  |  |  |
| Cc1ncc(NC(=O)C2CCC3(CC2)COC3)cc1-c1nccc(-c2ccnc(NC(=O)C3CC3)c2)n1 [Example 338] | 1000 to 10000 | 1000 to 10000 | 500 to 1000 | 1 to 10 |  |  |  |  |  |
| Cc1ncc(NC(=O)C2CCOCC2)cc1-c1nccc(-c2ccnc(NC(=O)C3CC3)c2)n1 [Example 339] | 1000 to 10000 | 1000 to 10000 | 100 to 500 | 1 to 10 |  |  |  |  |  |
| Cc1ccc(NC(=O)C23CCC(C#N)(CC2)CC3)cc1-c1ccnc(-c2ccnc(NC(=O)C3CC3)c2)n1 [Example 340] | 1000 to 10000 | 100 to 500 | ≤ 100 | 1 to 10 |  |  |  |  |  |
| Cc1ncc(NC(=O)C23CCC(C#N)(CC2)CC3)cc1-c1cccc(-c2ccnc(NC(=O)C3CC3)c2)n1 [Example 342] | 1000 to 10000 | 1000 to 10000 | 1000 to 10000 | 1 to 10 |  |  |  |  |  |
| CO[C@H]1CC[C@H](C(=O)Nc2cnc(C)c(-c3cccc(-c4ccnc(NC(=O)C5CC5)c4)n3)c2)CC1 [Example 343] | 1000 to 10000 | 500 to 1000 | 100 to 500 | 1 to 10 |  |  |  |  |  |
| Cc1ccc(NC(=O)C2CCN(C)C2)cc1-c1cccc(-c2cc(NC(=O)C3CC3)ncn2)c1 (stereo not drawn) [Example 344] | 1000 to 10000 | 500 to 1000 | 100 to 500 | 1 to 10 |  |  |  |  |  |
| Cc1ccc(NC(=O)C2CCOC2)cc1-c1cccc(-c2cc(NC(=O)C3CC3)ncn2)c1 (stereo not drawn) [Example 345] | 1000 to 10000 | 100 to 500 | ≤ 100 | 1 to 10 |  |  |  |  |  |
| Cc1ncc(NC(=O)C2CCOCC2)cc1-c1cccc(-c2cc(NC(=O)C3CC3)ncn2)c1 [Example 349] | 1000 to 10000 | 500 to 1000 | 100 to 500 | 1 to 10 |  |  |  |  |  |
| Cc1ncc(NC(=O)C2CNCCO2)cc1-c1cccc(-c2cc(NC(=O)C3CC3)ncn2)c1 (stereo not drawn) [Example 350] | 1000 to 10000 | 1000 to 10000 | 1000 to 10000 | 1 to 10 |  |  |  |  |  |
| Cc1ncc(NC(=O)C2CCN(C)C2)cc1-c1cccc(-c2cc(NC(=O)C3CC3)ncn2)c1 (stereo not drawn) [Example 351] | 1000 to 10000 | 1000 to 10000 | 500 to 1000 | 1 to 10 |  |  |  |  |  |
| Cc1ncc(NC(=O)C2CCOC2)cc1-c1cccc(-c2cc(NC(=O)C3CC3)ncn2)c1 (stereo not drawn) [Example 352] | 1000 to 10000 | 1000 to 10000 | 500 to 1000 | 1 to 10 |  |  |  |  |  |
| Cc1ncc(NC(=O)CN2CCOCC2)cc1-c1cccc(-c2cc(NC(=O)C3CC3)ncn2)c1 [Example 353] | 1000 to 10000 | 500 to 1000 | 100 to 500 | 1 to 10 |  |  |  |  |  |
| Cc1ncc(NC(=O)CC2CC(F)(F)C2)cc1-c1nccc(-c2ccnc(NC(=O)C3CC3)c2)n1 [Example 354] | 500 to 1000 | 100 to 500 | ≤ 100 | 1 to 10 |  |  |  |  |  |
| Cc1ncc(NC(=O)CC2COC2)cc1-c1nccc(-c2ccnc(NC(=O)C3CC3)c2)n1 [Example 355] | 1000 to 10000 | 1000 to 10000 | 1000 to 10000 | 1 to 10 |  |  |  |  |  |
| Cc1ncc(NC(=O)CC2COC2)cc1-c1cccc(-c2cc(NC(=O)C3CC3)ncn2)c1 [Example 356] | 1000 to 10000 | 1000 to 10000 | 500 to 1000 | 1 to 10 |  |  |  |  |  |
| COC(=O)Nc1cc(-c2cnnc(-c3cc(NC(=O)c4ccnc(C(C)(C)C#N)c4)ccc3F)c2)ccn1 [Example 390] |  |  |  |  |  | ≤ 100 | ≤ 100 | 100 to 500 | 1 to 10 |
| Cc1ccc(NC(=O)Cn2cc(C(C)C)nn2)cc1-c1cncc(-c2cc(N)ncn2)c1 [Example 426] |  |  |  |  |  | 1000 to 10000 | 500 to 1000 | 1000 to 10000 | 1 to 10 |
